# “And” between values parts separate entries of the source, which are not always exact repeats. Equal entries are not always repeated. “Also recorded” adds a separate entry of the source. Where two headings read alike, the source gives them in different places.
# How the values were obtained:
# [1] = tested on: children with refractory solid or CNS tumors; test: Phase 1 trial: dose-limiting and non-dose-limiting toxicities of oral VPA; assay type: in vivo, human; details: for Description of DLTs: cycle 1
# [2] = assay type: in vivo, human; details: for Total VPA / Free VPA: at PBMC sampling; for CL/F: CL/F (apparent total body clearance) Median +/− SD; for half-life: t1/2 Median +/− SD
# [3] = tested on: Histone H3 acetylation in PBMCs; test: PBMC histone H3 acetylation, sandwich ELISA; assay type: in vivo, human; details: for Post-VPA/Pre-VPA AcH3: steady state trough
# [4] = tested on: Histone H4 acetylation in PBMCs; test: PBMC histone H4 acetylation, sandwich ELISA; assay type: in vivo, human; details: steady state trough
# [5] = tested on: children with newly diagnosed high-grade or brainstem gliomas; test: Ongoing phase II trial of VPA and radiation; assay type: in vivo, human; details: seven children; VPA trough concentrations of 85–115 mcg/ml
# human cancers = details: pre-clinical studies; cited from earlier work
# [6] = tested on: PBMC histone acetylation (AcH3 and AcH4); details: 4 hours after a dose of VPA; cited from earlier work
# histone acetylation = details: at the time of maximal drug concentration; cited from earlier work
# [7] = Cycle 1 (16 total cycle), 16 evaluable patients
# [8] = Cycle 2 to 7 (15 total cycles), 16 evaluable patients
# [9] = human, plasma, po, Steady State, Free VPA (n = 4), oral
# [10] = human, plasma, po, Steady State, Total VPA (n = 4), oral
structure (smiles),measurement,setting,value
"CCCC(CCC)C(=O)O [VPA, Valproic acid]",Description of DLTs,"[1]; Cohort 0 (trough VPA level 75–100 mcg/ml), TID dosing",None
same,Description of DLTs,"[1]; Cohort 1 (trough VPA level 100–150 mcg/ml), BID dosing",grade 3 somnolence; also recorded: Somnolence (1)
same,Description of DLTs,"[1]; Cohort 1 (trough VPA level 100–150 mcg/ml), TID dosing",grade-3 somnolence and grade-5 hemorrhage/hemothorax; also recorded: Somnolence (1) Pulmonary hemorrhage (1) Dyspnea (1) Hypoxia (1) Hypotension (1) Hypocalcemia (1)
same,"Anemia, non-dose limiting, maximum Grade 1",[1]; [7],3
same,"Anemia, non-dose limiting, maximum Grade 2",[1]; [7],2
same,"Anemia, non-dose limiting, maximum Grade 4",[1]; [7],1
same,"Dizziness, non-dose limiting, maximum Grade 1",[1]; [7],4
same,"Fatigue, non-dose limiting, maximum Grade 1",[1]; [7],3
same,"Fatigue, non-dose limiting, maximum Grade 2",[1]; [7],2
same,"Headache, non-dose limiting, maximum Grade 1",[1]; [7],1
same,"Headache, non-dose limiting, maximum Grade 2",[1]; [7],1
same,"Hypoalbuminemia, non-dose limiting, maximum Grade 1",[1]; [7],1
same,"Hypoalbuminemia, non-dose limiting, maximum Grade 2",[1]; [7],2
same,"Leukopenia, non-dose limiting, maximum Grade 1",[1]; [7],5
same,"Leukopenia, non-dose limiting, maximum Grade 2",[1]; [7],1
same,"Lymphopenia, non-dose limiting, maximum Grade 1",[1]; [7],4
same,"Lymphopenia, non-dose limiting, maximum Grade 2",[1]; [7],1
same,"Lymphopenia, non-dose limiting, maximum Grade 4",[1]; [7],1
same,"Nausea, non-dose limiting, maximum Grade 1",[1]; [7],1
same,"Nausea, non-dose limiting, maximum Grade 3",[1]; [7],1
same,"Neutropenia, non-dose limiting, maximum Grade 1",[1]; [7],1
same,"Somnolence, non-dose limiting, maximum Grade 2",[1]; [7],1
same,"Thrombocytopenia, non-dose limiting, maximum Grade 1",[1]; [7],6
same,"Thrombocytopenia, non-dose limiting, maximum Grade 2",[1]; [7],2
same,"Vomiting, non-dose limiting, maximum Grade 2",[1]; [7],2
same,"Anemia, non-dose limiting, maximum Grade 1",[1]; [8],2
same,"Anemia, non-dose limiting, maximum Grade 2",[1]; [8],1
same,"Dizziness, non-dose limiting, maximum Grade 1",[1]; [8],1
same,"Fatigue, non-dose limiting, maximum Grade 2",[1]; [8],1
same,"Headache, non-dose limiting, maximum Grade 2",[1]; [8],1
same,"Leukopenia, non-dose limiting, maximum Grade 2",[1]; [8],1
same,"Leukopenia, non-dose limiting, maximum Grade 3",[1]; [8],1
same,"Lymphopenia, non-dose limiting, maximum Grade 1",[1]; [8],2
same,"Lymphopenia, non-dose limiting, maximum Grade 3",[1]; [8],1
same,"Neutropenia, non-dose limiting, maximum Grade 2",[1]; [8],1
same,"Neutropenia, non-dose limiting, maximum Grade 3",[1]; [8],1
same,"Neutropenia, non-dose limiting, maximum Grade 4",[1]; [8],1
same,"Thrombocytopenia, non-dose limiting, maximum Grade 1",[1]; [8],2
same,"Thrombocytopenia, non-dose limiting, maximum Grade 4",[1]; [8],1
same,Total VPA,[2]; Patient 536584,81.0 µg/mL
same,Total VPA,[2]; Patient 712904,100.9 µg/mL
same,Total VPA,[2]; Patient 714036,109.0 µg/mL
same,Total VPA,[2]; Patient 734297,78.2 µg/mL
same,Free VPA,[2]; Patient 747001,19.1 µg/mL
same,Total VPA,[2]; Patient 747001,90.9 µg/mL
same,Total VPA,[2]; Patient 752294,134.1 µg/mL
same,Free VPA,[2]; Patient 757318,36.6 µg/mL
same,Total VPA,[2]; Patient 757318,90.1 µg/mL
same,Free VPA,[2]; Patient 769495,8.1 µg/mL
same,Total VPA,[2]; Patient 769495,77.0 µg/mL
same,Free VPA,[2]; Patient 770059,11 µg/mL
same,Total VPA,[2]; Patient 770059,105.7 µg/mL
same,Free VPA,[2]; Patient 770113,8 µg/mL
same,Total VPA,[2]; Patient 770113,55.7 µg/mL
same,Mean steady state VPA dose,"[2]; VPA concentration 75–100 mcg/ml, syrup and capsules (n = 2)",12.5 ± 3.5 mg/kg
same,Mean steady state VPA dose,"[2]; VPA concentration 75–100 mcg/ml, syrup only (n = 4)",17.5 ± 2.9 mg/kg
same,Mean steady state VPA dose,"[2]; VPA concentrations 100–150 mcg/ml, syrup and capsules (n = 8)",41.3 ± 20.7 mg/kg
same,Mean steady state VPA dose,"[2]; VPA concentrations 100–150 mcg/ml, syrup only (n = 10)",36.0 ± 27.7 mg/kg
same,concentration at 9 weeks,"[2]; human, plasma, oral",123 µg/mL
same,concentration at 3 days,"[2]; human, plasma, oral, 25 mg/kg/day",172 µg/mL
same,Vd/F,"[2]; human, plasma, po, 25 mg/kg/day",0.12 L/kg
same,CL/F,"[2]; human, plasma, po, 25 mg/kg/day, First dose, Total VPA (n = 4), oral",0.2 mL/min/kg
same,CL/F,[2]; [9],0.87 mL/min/kg
same,CL/F,[2]; [10],0.133 mL/min/kg
same,half-life,[2]; [9],6.5 h
same,half-life,[2]; [10],11.4 h
same,Mean final dose of VPA,"[2]; starting dose 25 mg/kg/day divided b.i.d., trough above 100 mcg/ml",exceeded 50 mg/kg/day
same,Number of dose escalations to achieve targeted concentrations (mean ± SD),[2]; t.i.d. dosing,1.3 ± 0.5
same,Mean final dose of VPA,"[2]; t.i.d., starting dose 15 mg/kg/day",less than 20 mg/kg/day
same,Free VPA concentration as % of total concentration (mean +/− SD),"[2]; total VPA concentration exceeded 125 mcg/ml, 8 measurements",44.9 +/− 15.8%
same,Free VPA concentration as % of total concentration (mean +/− SD),"[2]; total VPA concentrations below 100 mcg/ml, 32 measurements",16.8 +/− 6.9%
same,Free VPA concentration as % of total concentration (mean +/− SD),"[2]; total VPA concentrations between 100–125 mcg/ml, 17 measurements",21.3 +/− 11.5%
same,Fraction of free VPA,[2]; until total VPA concentrations exceeded 125 mcg/ml,less than 0.25
same,Patients with reduced post-treatment AcH3 and AcH4 levels in PBMCs,[3]; 10 patients studied,Five
same,Patients with increased AcH3 and AcH4 levels in PBMCs,"[3]; 10 patients studied, at trough VPA exposure",Five and 5 out of 10
same,Post-VPA/Pre-VPA AcH3,[3]; Patient 712904,0.75
same,Post-VPA/Pre-VPA AcH3,[3]; Patient 714036,0.93
same,Post-VPA/Pre-VPA AcH3,[3]; Patient 734297,1.51
same,Post-VPA/Pre-VPA AcH3,[3]; Patient 747001,0.43
same,Post-VPA/Pre-VPA AcH3,[3]; Patient 757318,1.44
same,Post-VPA/Pre-VPA AcH3,[3]; Patient 769495,1.38
same,Post-VPA/Pre-VPA AcH3,[3]; Patient 770113,0.90
same,Patients with increased PBMC histone acetylation,"[3]; of patients studied, steady state, H3 and H4",50%
same,Post-VPA/Pre-VPA AcH4,[4]; Patient 712904,0.75
same,Post-VPA/Pre-VPA AcH4,[4]; Patient 714036,0.87
same,Post-VPA/Pre-VPA AcH4,[4]; Patient 734297,1.11
same,Post-VPA/Pre-VPA AcH4,[4]; Patient 747001,0.47
same,Post-VPA/Pre-VPA AcH4,[4]; Patient 757318,1.55
same,Post-VPA/Pre-VPA AcH4,[4]; Patient 769495,2.45
same,Post-VPA/Pre-VPA AcH4,[4]; Patient 770113,0.70
same,Toxicity of radiation and VPA,[5],without encountering neuro-toxicities or other dose-limiting toxicities
same,Threshold VPA concentration associated with anti-tumor activity,human cancers,exceeded 100 mcg/ml
same,Increases in AcH3 and AcH4 in PBMC,[6],observed in all patients
C/C=C1\NC(=O)[C@H]2CSSCC/C=C/[C@H](CC(=O)N[C@H](C(C)C)C(=O)N2)OC(=O)[C@H](C(C)C)NC1=O [depsipeptide],Histone hyper-acetylation,histone acetylation,histone hyper-acetylation in all patients

# Reference: publication PMC3064523 (Clinical cancer research : an official journal of the …, 2010)
